Data reported in patent US8034928B2, “Fluorescence assays with improved sensitivity” (Wisconsin Alumni Research Foundation, priority 2003, dated 2011).

Assays:
[1] = Stability: generation of fluorescence in PBS, DMEM or water without trigger; assay type: physicochemical; conditions: DMEM and PBS, 5 μM, no cells
Description: The biological utility of pro-fluorophore 3 was then studied. To be useful, a latent fluorophore must remain non-fluorescent or have a small fluorescence in a biological environment. Accordingly, the accumulation of fluorescence in Dulbecco's modified Eagle's medium (DMEM) and phosphate-buffered saline (PBS) containing either fluorescein diacetate (which is a widely used pro-fluorophore) or 3 were studied.
A solution of pro-fluorophore 3 (5 μM) in 2 mL PBS was treated with PLE (0.5 μg), and the mixture was kept at room temperature for 4 h. The fluorescence excitation-emission spectra of the solution were recorded. The procedure was repeated for a solution of pro-fluorophore 3 treated in an identical manner, except for the addition of PLE.

HeLa cells = test: Fluorescence microscopy of HeLa cells incubated with pro-fluorophore in DMEM; assay type: cell-based; conditions: 10 μM, 2 h, 37° C., unwashed cells
Description: FIGS. 3B and C show unwashed HeLa cells incubated for 2 h with fluorescein diacetate (panel B; 10 μM) or 3 (panel C; 10 μM) at 37° C. in DMEM (5% CO2, 100% humidity). In FIG. 3C, the grey/white areas show the intensity of the fluorescence with the highest fluorescence shown as the lightest shade.
Fluorescence microscopy was used to determine the fate of fluorescein diacetate and pro-fluorophore 3 in DMEM containing HeLa cells.

## CC(=O)Oc1ccc2c(c1)Oc1cc(OC(C)=O)ccc1C21OC(=O)c2ccccc21 [fluorescein diacetate]
[1]
  accumulation of fluorescence in medium (stability): became fluorescent in minutes
HeLa cells
  fluorescence in HeLa cells: much greater in the medium than in HeLa cells
